Assay results reported in patent publication US11666577B2 (National Institute of Biological Sciences, Beijing, priority 2018, dated 2023).

The compounds below were run on HT-29 cells (assay: Necroptosis assay (TNF-α/Smac mimetic/z-VAD, TSZ-induced) in HT-29 cells). Conditions: Homo sapiens; Series 1 (Table 1) compounds 1-146; HT-29 cells, TNF-α/Smac mimetic/z-VAD, 24 hrs, cell viability by ATP level; read-out: Series 1 compound necroptosis activity.
Format: cell-based, human
Experimental: Methods: HT-29 cells were cultured in McCoy's 5 A culture medium (Invitrogen). On day one, HT-29 cells were plated in 96-well assay plates at density of 2,500-3,500 cells per well. On day two, necrosis were induced by adding 20 ng/ml TNF-α (T), 100 nM Smac mimetic (S), and […] z-VAD (Z). At the same time, 10 mM compound from a chemical library of ˜200,000 compounds was delivered into each well. After 24 hrs treatment, cell viability was determined by measuring ATP level using the Cell Titer-Glo Luminescent Cell Viability Assay kit. A CellTiter-Glo Assay (Promega) was performed according to the manufacturer's instructions. Luminescence was recorded with a PerkinElmer EnSpire Multimode Plate Reader. Survived cells were normalized to those cells treated with DMSO. RIPA-56 was used as a positive control for screening necroptosis inhibitors. Data are represented as mean±standard deviation of duplicates.
In previous work, we performed a cell-based high-throughput screen to identify necroptosis inhibitors using a chemical library of ˜200,000 compounds and identified multiple compounds that protected human colorectal adenocarcinoma (HT-29) cells from TNF-α/Smac mimetic/Z-VAD-fmk (TSZ)-induced necroptosis.^[4]
The anti-necroptosis potency of compounds 7-12 and 14-18 was evaluated in the HT-29 cell line; the EC50 values are shown in Table B.
[a] Necroptosis was induced in HT-29 cells for 24 h; the EC50 values given here are the mean values of at least three independent analyses.

Compound	EC50 [µM]
COc1ccc(OC)c(CS(=O)(=O)c2nc3c(c(=O)n(C)c(=O)n3C)n2C)c1 [Compound 58, 8-(2,5-dimethoxybenzylsulfonyl)-1,3,7-trimethyl-1H-purine-2,6(3H,7H)-dione]	1 to 10
CCS(=O)(=O)c1nc2c(c(=O)n(C)c(=O)n2C)n1C [Compound 7, 8-(ethylsulfonyl)-1,3,7-trimethyl-1H-purine-2,6(3H,7H)-dione]	1 to 100
CCn1c(=O)n(C)c(=O)c2c1nc(S(C)(=O)=O)n2C [Compound 100, 3-ethyl-1,7-dimethyl-8-(methylsulfonyl)-1H-purine-2,6(3H,7H)-dione]	1 to 100
Cn1c(=O)c2c(nc(S(=O)(=O)CC3CC3)n2C)n(Cc2ccccc2Cl)c1=O [Compound 136, 3-(2-chlorobenzyl)-8-((cyclopropylmethyl)sulfonyl)-1,7-dimethyl-1H-purine-2,6(3H,7H)-dione]	1 to 100
CCCn1c(=O)n(C)c(=O)c2c1nc(S(C)(=O)=O)n2C [Compound 101, 1,7-dimethyl-8-(methylsulfonyl)-3-propyl-1H-purine-2,6(3H,7H)-dione]	1 to 100

Same assay, conditions: Homo sapiens; Series 2 (Table 2) compounds; HT-29 necroptosis assay; read-out: Series 2 compound necroptosis activity

Compound	EC50 [µM]
CN(C)CCOc1cc(C#CCn2c(=O)n(C)c(=O)c3c2nc(S(C)(=O)=O)n3C)cc(NC(=O)C2CC2)c1 [Compound 42]	0.001 to 0.1
Cn1c(=O)c2c(nc(S(C)(=O)=O)n2C)n(CC#Cc2cccc(NCc3ccccc3)c2)c1=O [Compound 13]	0.001 to 0.1
Cn1c(=O)c2c(nc(S(=O)(=O)CC3CC3)n2C)n(CC#Cc2ccnc(NCC3CC3)c2)c1=O [Compound 34]	0.001 to 0.1
Cn1c(=O)c2c(nc(S(C)(=O)=O)n2C)n(CC#Cc2ccnc(N)n2)c1=O [Compound 24]	0.001 to 0.1
Cn1c(=O)c2c(nc(S(C)(=O)=O)n2C)n(CC#Cc2cccc(NCCN3CCOCC3)c2)c1=O [Compound 14]	0.001 to 0.1
COCCOc1cc(C#CCn2c(=O)n(C)c(=O)c3c2nc([S+](C)[O-])n3C)cc(NC(=O)C2CC2)c1 (stereo not drawn) [Compound 54]	0.001 to 0.1
Cn1c(=O)c2c(nc(S(=O)(=O)CC3CC3)n2C)n(CC#Cc2cc(NC(=O)C3CC3)cc(NC(=O)C3CC3)c2)c1=O [Compound 30]	0.001 to 0.1
Cn1c(=O)c2c(nc3n2CCS3(=O)=O)n(CC#Cc2cccc(NCCN3CCOCC3)c2)c1=O [Compound 67]	0.001 to 0.1
Cn1c(=O)c2c(nc(S(=O)(=O)CCCO)n2C)n(C)c1=O [Compound 3]	0.1 to 10
Cn1c(=O)c2c(nc(S(=O)(=O)CC3CC3)n2C)n(CC#Cc2cc(NC(=O)C3CC3)nc(C(F)(F)F)c2)c1=O [Compound 45]	0.001 to 0.1
Cn1c(=O)c2c(nc(S(C)(=O)=O)n2C)n(CC#Cc2cc(NCC3CC3)cc(NCC3CC3)c2)c1=O [Compound 37]	0.001 to 0.1

Same assay, conditions: Series 1 (Table 1) compounds 1-146; HT-29 cells, TNF-α/Smac mimetic/z-VAD, 24 hrs, cell viability by ATP level; read-out: Series 1 compound necroptosis activity

Compound	EC50 [µM]
CCCOc1ccc(OC)cc1CS(=O)(=O)c1nc2c(c(=O)n(C)c(=O)n2C)n1C [Compound 66, 8-(5-methoxy-2-propoxybenzylsulfonyl)-1,3,7-trimethyl-1H-purine-2,6(3H,7H)-dione]	1 to 1000
CCC[S+]([O-])c1nc2c(c(=O)n(C)c(=O)n2C)n1C (stereo not drawn) [Compound 9, 1,3,7-trimethyl-8-(propylsulfinyl)-1H-purine-2,6(3H,7H)-dione]	1 to 1000
Cn1c(=O)c2c(nc(S(=O)(=O)Cc3cccc(C4(C(F)(F)F)N=N4)c3)n2C)n(C)c1=O [Compound 40, 1,3,7-trimethyl-8-(3-(3-(trifluoromethyl)-3H-diazirin-3-yl)benzylsulfonyl)-1H-purine-2,6(3H,7H)-dione]	1 to 1000
Cn1c(S(C)(=O)=O)nc2c1c(=O)[nH]c(=O)n2C [Compound 88, 3,7-dimethyl-8-(methylsulfonyl)-1H-purine-2,6(3H,7H)-dione]	1 to 1000
CCn1c(SC)nc2c1c(=O)n(C)c(=O)n2C [Compound 73, 7-ethyl-1,3-dimethyl-8-(methylthio)-1H-purine-2,6(3H,7H)-dione]	1 to 1000
COc1ccc(Br)c(OC)c1CS(=O)(=O)c1nc2c(c(=O)n(C)c(=O)n2C)n1C [Compound 69, 8-(3-bromo-2,6-dimethoxybenzylsulfonyl)-1,3,7-trimethyl-1H-purine-2,6(3H,7H)-dione]	1 to 1000
Cn1c(=O)c2c(nc(S(C)(=O)=O)n2CC(N)=O)n(C)c1=O [Compound 86, 2-(1,3-dimethyl-8-(methylsulfonyl)-2,6-dioxo-2,3-dihydro-1H-purin-7(6H)-yl)acetamide]	1 to 1000
CSc1nc2c(c(=O)[nH]c(=O)n2C)n1C [Compound 87, 3,7-dimethyl-8-(methylthio)-1H-purine-2,6(3H,7H)-dione]	1 to 1000
COc1cccc(OC)c1CS(=O)(=O)c1nc2c(c(=O)n(C)c(=O)n2C)n1C [Compound 62, 8-(2,6-dimethoxybenzylsulfonyl)-1,3,7-trimethyl-1H-purine-2,6(3H,7H)-dione]	1 to 1000
Cn1c(=O)c2c(nc(S(=O)(=O)Cc3ccc(F)cc3)n2C)n(C)c1=O [Compound 28, 8-(4-fluorobenzylsulfonyl)-1,3,7-trimethyl-1H-purine-2,6(3H,7H)-dione]	1 to 1000
Cn1c(=O)c2c(nc(S(=O)(=O)Cc3ccccc3Cl)n2C)n(C)c1=O [Compound 29, 8-(2-chlorobenzylsulfonyl)-1,3,7-trimethyl-1H-purine-2,6(3H,7H)-dione]	1 to 1000
Cn1c(=O)c2c(nc(S(=O)(=O)Cc3cccc(C#N)c3)n2C)n(C)c1=O [Compound 43, 3-((1,3,7-trimethyl-2,6-dioxo-2,3,6,7-tetrahydro-1H-purin-8-ylsulfonyl)methyl)benzonitrile]	1 to 1000
Cn1c(=O)c2[nH]c(S(C)(=O)=O)nc2n(C)c1=O [Compound 72, 1,3-dimethyl-8-(methylsulfonyl)-1H-purine-2,6(3H,7H)-dione]	1 to 1000
Cn1c(=O)c2c(nc(S(=O)(=O)Cc3cccc4ccccc34)n2C)n(C)c1=O [Compound 24, 1,3,7-trimethyl-8-(naphthalen-1-ylmethylsulfonyl)-1H-purine-2,6(3H,7H)-dione]	1 to 1000
CCCn1c(S(C)(=O)=O)nc2c1c(=O)n(C)c(=O)n2C [Compound 83, 1,3-dimethyl-8-(methylsulfonyl)-7-propyl-1H-purine-2,6(3H,7H)-dione]	1 to 1000
CCCOc1ccc(OC)c(CS(=O)(=O)c2nc3c(c(=O)n(C)c(=O)n3C)n2C)c1 [Compound 68, 8-(2-methoxy-5-propoxybenzylsulfonyl)-1,3,7-trimethyl-1H-purine-2,6(3H,7H)-dione]	1 to 1000

Same assay, conditions: Series 1 (Table 1) compounds 147-176; activity extrapolated; read-out: Series 1 compound necroptosis activity (extrapolated)

Compound	EC50 [µM]
Cn1c(=O)c2c(nc(S(C)(=O)=O)n2C)n(CC#Cc2ccc3c(c2)NCC3)c1=O [Compound 171]	1 to 1000
CNc1cc(C#CCn2c(=O)n(C)c(=O)c3c2nc(S(C)(=O)=O)n3C)ccc1N1CCOCC1 [Compound 174]	1 to 1000
Cn1c(=O)c2c(nc(S(C)(=O)=O)n2C)n(CC#Cc2ccc3c(c2)NCCC3)c1=O [Compound 170]	1 to 1000
Cn1c(=O)c2c(nc(S(=O)(=O)CCO)n2C)n(CC#Cc2cccc(O)c2)c1=O [Compound 147]	1 to 1000
Cn1c(=O)c2c(nc(S(N)(=O)=O)n2C)n(CC#Cc2cccc(O)c2)c1=O [Compound 156]	1 to 1000
Cn1c(=O)c2c(nc(S(C)(=O)=O)n2C)n(CC#Cc2ccc(=O)[nH]c2)c1=O [Compound 165]	1 to 1000

Same assay, conditions: Series 1 (Table 1) compounds; HT-29 cells, TNF-α/Smac mimetic/z-VAD, 24 hrs, cell viability by ATP level; read-out: Series 1 compound necroptosis activity

Compound	EC50 [µM]
Cn1c(=O)c2c(nc(S(=O)(=O)CC3CC3)n2C)n(CC#Cc2ccc(Cl)cc2)c1=O [Compound 121, 3-(3-(4-chlorophenyl)prop-2-yn-1-yl)-8-((cyclopropylmethyl)sulfonyl)-1,7-dimethyl-3,7-dihydro-1H-purine-2,6-dione]	0.001 to 1
